# From patent US20250152599A1 (priority 2020, published 2025)
# Read-outs that look alike come from different tables or passages of the source.
# Assays:
# Vero cells = conditions: for CC10: African green monkey
# [1] = system: novel coronavirus (SARS-CoV-2); assay: microbe, parasite or virus in culture; assay type: cell-based; conditions: for EC50: Severe acute respiratory syndrome coronavirus 2, Vero, read-out: EC50 for inhibiting the novel coronavirus
# HCoV 229E [2] = assay: microbe, parasite or virus in culture; conditions: unidentified human coronavirus
# HCoV 229E [3] = system: HCoV 229E
# in vitro [4] = conditions: human
# novel coronavirus = assay: Inhibitory effect of PI0101 on the novel coronavirus, 96-well plate, 76 hours; assay type: cell-based, SARS-CoV-2; conditions: Severe acute respiratory syndrome coronavirus 2, novel coronavirus 100 TCID50/well
# PI4KIIIα = PI4KIIIα (Homo sapiens, UniProt P42356); conditions: read-out: IC50 of inhibitory effect on PI4KIIIα; cited from earlier work
# in vitro [5] = assay: in vitro
# in vitro [6] = conditions: African green monkey
# MRC5 cells = conditions: human
# Chain of PI4KIIIα (P42356 whole entry): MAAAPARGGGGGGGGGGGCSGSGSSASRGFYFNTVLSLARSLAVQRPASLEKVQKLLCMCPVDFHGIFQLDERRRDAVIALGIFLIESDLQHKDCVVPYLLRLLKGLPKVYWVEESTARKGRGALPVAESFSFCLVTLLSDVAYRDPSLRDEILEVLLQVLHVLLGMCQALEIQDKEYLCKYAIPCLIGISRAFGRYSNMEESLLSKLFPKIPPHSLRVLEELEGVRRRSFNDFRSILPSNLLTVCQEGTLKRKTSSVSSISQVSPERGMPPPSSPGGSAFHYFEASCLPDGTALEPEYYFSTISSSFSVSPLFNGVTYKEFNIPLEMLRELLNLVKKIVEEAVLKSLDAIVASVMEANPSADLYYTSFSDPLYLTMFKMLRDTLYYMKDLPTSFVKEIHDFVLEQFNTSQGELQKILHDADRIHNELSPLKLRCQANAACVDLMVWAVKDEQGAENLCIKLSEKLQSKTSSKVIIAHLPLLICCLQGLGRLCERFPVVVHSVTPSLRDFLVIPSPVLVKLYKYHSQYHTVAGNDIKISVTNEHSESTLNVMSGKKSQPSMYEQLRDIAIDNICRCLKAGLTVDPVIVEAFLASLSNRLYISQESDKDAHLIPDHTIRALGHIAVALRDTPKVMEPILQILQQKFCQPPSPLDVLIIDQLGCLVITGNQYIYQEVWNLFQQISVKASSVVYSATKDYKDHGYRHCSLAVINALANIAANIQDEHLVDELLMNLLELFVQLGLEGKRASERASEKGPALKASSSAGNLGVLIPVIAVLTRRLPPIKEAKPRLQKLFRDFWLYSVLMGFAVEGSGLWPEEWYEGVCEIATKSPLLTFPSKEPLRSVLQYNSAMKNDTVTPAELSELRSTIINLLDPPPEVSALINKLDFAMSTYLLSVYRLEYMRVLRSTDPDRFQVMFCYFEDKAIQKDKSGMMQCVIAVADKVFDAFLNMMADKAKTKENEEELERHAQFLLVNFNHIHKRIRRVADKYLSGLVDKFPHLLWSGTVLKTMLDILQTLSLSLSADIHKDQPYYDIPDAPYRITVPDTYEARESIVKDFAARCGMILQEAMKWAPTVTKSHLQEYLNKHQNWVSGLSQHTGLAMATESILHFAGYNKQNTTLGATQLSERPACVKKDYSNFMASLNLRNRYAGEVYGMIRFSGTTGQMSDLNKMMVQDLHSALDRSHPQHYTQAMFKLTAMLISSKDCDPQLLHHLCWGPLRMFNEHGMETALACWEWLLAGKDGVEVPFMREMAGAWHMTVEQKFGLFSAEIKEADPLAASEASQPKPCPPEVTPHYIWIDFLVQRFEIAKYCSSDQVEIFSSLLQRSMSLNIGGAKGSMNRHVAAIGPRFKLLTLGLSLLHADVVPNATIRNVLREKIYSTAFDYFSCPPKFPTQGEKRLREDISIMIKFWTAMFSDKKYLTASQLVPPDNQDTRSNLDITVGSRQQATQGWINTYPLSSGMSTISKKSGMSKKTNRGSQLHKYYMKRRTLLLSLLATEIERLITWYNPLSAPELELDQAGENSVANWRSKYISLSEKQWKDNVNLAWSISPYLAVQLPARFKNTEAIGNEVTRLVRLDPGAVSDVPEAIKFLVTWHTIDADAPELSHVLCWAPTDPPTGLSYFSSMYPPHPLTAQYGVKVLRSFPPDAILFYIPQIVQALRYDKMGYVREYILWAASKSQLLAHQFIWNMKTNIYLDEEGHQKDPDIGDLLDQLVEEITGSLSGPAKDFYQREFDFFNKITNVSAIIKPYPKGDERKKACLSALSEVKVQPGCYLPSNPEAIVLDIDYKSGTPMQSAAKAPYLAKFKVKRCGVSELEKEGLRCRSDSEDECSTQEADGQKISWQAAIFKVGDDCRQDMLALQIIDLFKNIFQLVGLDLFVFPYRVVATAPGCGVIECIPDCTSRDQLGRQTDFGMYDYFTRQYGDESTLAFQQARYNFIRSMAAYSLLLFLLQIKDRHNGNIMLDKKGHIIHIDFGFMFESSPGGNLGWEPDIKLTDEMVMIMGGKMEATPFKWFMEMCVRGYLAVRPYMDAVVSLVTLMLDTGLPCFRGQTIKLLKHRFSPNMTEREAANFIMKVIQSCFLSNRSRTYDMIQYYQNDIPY
smiles,measurement,setting,value
CCN(CC)CCCC(C)Nc1ccnc2cc(Cl)ccc12 (stereo not drawn) [Chloroquine phosphate],CC10,Vero cells,120 µM
same,EC50,[1],50 µM
"COc1ccc2c(O[C@@H]3C[C@H]4C(=O)N[C@]5(C(=O)NS(=O)(=O)C6CC6)C[C@H]5/C=C\CCCCN(C)C(=O)[C@@H]4C3)cc(-c3nc(C(C)C)cs3)nc2c1C [PI0101, Simeprevir]",EC50,"HCoV 229E [2]; MRC5, 72 h",3.41 µM
same,SI (CC50/EC50),HCoV 229E [3]; the second test,2.48
same,CC50,in vitro [4],8.46 µM
same,EC50,novel coronavirus,3.85 µM
same,IC50,PI4KIIIα,0.2 µM
same,CC50,in vitro [5],> 10 µM
CC(=O)Nc1nc(C)c(-c2ccc(Cl)c(S(=O)(=O)NCCO)c2)s1 [PIK-93],toxic effect on Vero cells,Vero cells,no significant toxic effect
same,inhibitory effect on the novel coronavirus,[1],no significant inhibitory effect
CCC(CC)COC(=O)[C@H](C)N[P@](=O)(OC[C@H]1O[C@@](C#N)(c2ccc3c(N)ncnn23)[C@H](O)[C@@H]1O)Oc1ccccc1 [Remdesivir],EC50,HCoV 229E [2]; MRC5,0.0264 µM
same,SI (CC50/EC50),HCoV 229E [3]; the first test,>3785.01
same,SI (CC50/EC50),HCoV 229E [3]; the second test,2338.60
same,CC50,in vitro [6],208 µM
same,viability,in vitro [6],> 90%
same,CC10,Vero cells,55 µM
same,CC50,MRC5 cells,30.7 µM
same,EC50,[1],0.52 µM
O=[As]c1ccc(NC(=O)CCc2ccccc2)cc1 (stereo not drawn) [YL-05],EC50,"HCoV 229E [2]; MRC5, 72 h",> 0.2 µM
same,CC50,in vitro [4],> 0.8 µM
O=[As]c1ccc(NS(=O)(=O)c2ccc(F)cc2)cc1 (stereo not drawn) [YL-09],CC50,MRC5 cells,13.9 µM
COc1ccc(S(=O)(=O)Nc2ccc([As]=O)cc2)cc1 (stereo not drawn) [YL-10],EC50,HCoV 229E [3],3.95 µM
same,SI (CC50/EC50),HCoV 229E [3],3.55
same,CC50,MRC5 cells,14 µM
O=[As]c1ccc(NS(=O)(=O)c2ccc(C(F)(F)F)cc2)cc1 (stereo not drawn) [YL-11],EC50,HCoV 229E [3],2.1 µM
same,SI (CC50/EC50),HCoV 229E [3],3.03
same,CC50,MRC5 cells,6.37 µM
